Assay results published in EP3246325A1, “2-ACYLAMINOTHIAZOLE COMPOUND CRYSTALS” (priority 2011, dated 2013).
Counter-ions that a name gives are not always drawn.

How the values were obtained:
human c-mpl-Ba/F3 cell = assay: Mouse oral administration test: blood plasma after oral dosing added to the human c-mpl-Ba/F3 cell proliferation test system; format: in vivo, male ICR mice; conditions: 3 mg/kg orally; for oral absorption: verbal conclusion from Table 1, mice; for Cell proliferation activity (%): male ICR mice, blood sampled 2 hours after administration, maximum activity of each test compound = 100%
Protocol: Test Example 2: Mouse Oral Administration Test 3 mg/kg of the test compound suspended in an aqueous solution of 0.5% methylcellulose was orally administered to male ICR mice. […] Table 1 Human c-mpl-Ba/F3 cell proliferation activity of […] after orally administering test compounds

[1] = tested on: Ba/F3 cells where c-mpl was not introduced; assay: Cell proliferation test with Ba/F3 cells where c-mpl was not introduced (counter-test); format: cell-based
Human c-mpl-Ba/F3 cells = assay: Cell proliferation test for human c-mpl-Ba/F3 cells (WST-1/1-methoxy PMS absorbance); conditions: based on the maximum cell proliferation activity of rhTPO being 100%
Protocol: Test Example 1 Cell Proliferation Test for Human c-mpl-Ba/F3 Cells
Human c-mpl-Ba/F3 cells at a concentration of 2 x 10^5 cells/mL were cultured at 37 degree C on a 96 well microplate using RPMI 1640 culture medium (100 microliter/ well) containing 10% fetal calf serum to which various concentrations of the test compound was added. After 24 hours from the start of culturing, 10 microliter/well of WST-1/1-methoxy PMS (cell measuring kit, Dojin) was added. Immediately after the addition and two hours later, the A450/A650 absorbance was measured using a microplate reader (Model 3350, Bio-Rad), and the increase in absorbance after 2 hours was interpreted to represent the proliferation activity of each test compound.

## O=C(Nc1nc(-c2cc(Cl)cs2)c(N2CCN(C3CCCCC3)CC2)s1)c1cnc(N2CCC(C(=O)O)CC2)c(Cl)c1 [listing 1 of 2 here]
Human c-mpl-Ba/F3 cell
  oral absorption: excellent oral absorption

## O=C(Nc1nc(-c2cc(Cl)cs2)c(N2CCN(C3CCCCC3)CC2)s1)c1cnc(N2CCC(C(=O)O)CC2)c(Cl)c1 [listing 2 of 2 here]
[1]
  cell proliferation effect: a cell proliferation effect was not observed
Human c-mpl-Ba/F3 cells
  Emax: 102%

## O=C(Nc1nc(-c2cc(Cl)cs2)c(N2CCN(C3CCCCC3)CC2)s1)c1cnc(N2CCC(C(=O)O)CC2)c(Cl)c1.O=C(O)/C=C\C(=O)O [1-(3-chloro-5-{ [4-(4-chlorothiophen-2-yl)-5-(4-cyclohexylpiperazin-1-yl)thiazol-2-yl]carbamoyl}pyridin-2-yl) piperidine-4-carboxylic acid maleic acid salt]
Human c-mpl-Ba/F3 cell; 0.3% blood plasma concentration
  Cell proliferation activity (%): < 10%
Human c-mpl-Ba/F3 cell; listed as compound X maleic acid B type crystals, 3 mg/kg
  oral absorption: inferior oral absorption

## O=C(Nc1nc(-c2cc(Cl)cs2)c(N2CCN(C3CCCCC3)CC2)s1)c1cnc(N2CCC(C(=O)O)CC2)c(Cl)c1.O=C(O)/C=C\C(=O)O [1-(3-chloro-5-{[4-(4-chlorothiophen-2-yl)-5-(4-cyclohexylpiperazin-1-yl)thiazol-2-yl]carbamoyl}pyridin-2-yl) piperidine-4-carboxylic acid maleic acid salt]
Human c-mpl-Ba/F3 cell; listed as compound X maleic acid salt C type crystal, 3 mg/kg
  oral absorption: excellent oral absorption

## O=C(Nc1nc(-c2cc(Cl)cs2)c(N2CCN(C3CCCCC3)CC2)s1)c1cnc(N2CCC(C(=O)O)CC2)c(Cl)c1 [Compound X hydrochloride, reference compound]
Human c-mpl-Ba/F3 cell; 10% blood plasma concentration
  Cell proliferation activity (%): 34%
